How the values were obtained:
Test in all cases: relative viability (nuclei count vs DMSO), 5 days (fraction); higher = more cells survive
[1] = compound: C1COCCN1C2=CC(=O)C3=C(O2)C(=CC=C3)C4=CC=CC5=C4SC6=CC=CC=C56
How it was run: (§1)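 Lung cancer cell lines received five library-drug doses (not always all listed) spaced by √10, pinned on vehicle-anchored 1536-well plates after an overnight stay at 37 °C. Five days later, with no medium change, nuclei were Hoechst-stained, imaged at 4× and counted with MetaXpress. Viability is treated-well nuclei relative to vehicle-well nuclei, as a median across plates. Passing plates had control CV below 25% and at least one doubling.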

Zibotentan = compound: COc1nc(C)cnc1NS(=O)(=O)c1cccnc1-c1ccc(-c2nnco2)cc1 [Zibotentan]
How it was run: as §1

[2] = compound: O=c1cc(-c2cccc3c2Sc2ccccc2S3)oc(N2CCOCC2)c1
How it was run: as §1

[3] = compound: CCN(CC)CCCCNc1ncc2cc(-c3cc(OC)cc(OC)c3)c(NC(=O)NC(C)(C)C)nc2n1
How it was run: as §1

PRIMA-1MET = compound: COCC1(CO)C(=O)C2CCN1CC2 [PRIMA-1MET]
How it was run: as §1

Cell Line	relative viability ([1]; 0.01 µM)	relative viability ([1]; 0.03162 µM)	relative viability ([1]; 0.1 µM)	relative viability ([1]; 0.3162 µM)	relative viability ([1]; 1 µM)	relative viability (Zibotentan; 0.08 µM)	relative viability (Zibotentan; 0.253 µM)	relative viability (Zibotentan; 0.8 µM)	relative viability (Zibotentan; 2.53 µM)	relative viability ([2]; 0.08 µM)	relative viability ([2]; 0.253 µM)	relative viability ([2]; 0.8 µM)	relative viability ([2]; 2.53 µM)	relative viability ([2]; 8 µM)	relative viability ([3]; 0.01 µM)	relative viability ([3]; 0.03162 µM)	relative viability ([3]; 0.1 µM)	relative viability ([3]; 0.3162 µM)	relative viability ([3]; 1 µM)	relative viability (PRIMA-1MET; 0.2 µM)	relative viability (PRIMA-1MET; 0.6325 µM)	relative viability (PRIMA-1MET; 2 µM)	relative viability (PRIMA-1MET; 6.325 µM)	relative viability (PRIMA-1MET; 20 µM)
201T	0.988	0.989	1.01	0.954	0.953	1.01	0.968	0.986	0.978	0.952	0.971	0.844	0.944	1.03	0.976	0.972	1.01	0.954	0.898	1.07	0.93	0.758	1.01	0.987
A549	1.01	0.96	1.01	0.973	0.914	1.04	0.938	0.931	1	0.946	1.22	1.1	0.991	1.07	0.927	0.97	1.15	1.06	0.876	1.1	0.893	0.944	1.01	0.891
A-427	0.967	1.05	0.923	0.979	1	1.08	0.972	0.942	1.01	0.958	1.03	1.09	0.814	1.06	1.01	0.896	1.07	1.12	0.844	1.01	0.836	0.831	1.02	0.855
ABC-1	0.917	1.16	1.03	1.04	0.954	1.06	0.753	0.96	1	0.922	1.09	0.808	0.976	1.12	0.957	0.838	1.25	1.07	0.869	0.953	0.621	0.903	0.829	0.247
BEN	0.919	1.04	0.931	1.04	0.897	1.06	0.782	0.936	0.941	0.876	0.931	0.946	0.996	1.18	1	0.89	1	1.01	0.816	0.982	0.825		1.06	1.01
CAL-12T	0.924	0.991	1.03	1.05	0.854	0.965	0.918	0.942	1.03	0.94	1.06	0.952	0.955	0.883	0.901	1.03	1.04	1.04	0.974	0.946	0.924	1.02	0.934	0.352
COR-L23	1	1	1.01	1.02	1.06	1.06	1.06	1.01	1.03	1.03	1.37	1.12	1.03	1.14	1.1	1.14	1.33	1.16	1.11	1.33	0.936	0.94	1.11	0.0329
COR-L 105	0.88	0.926	0.943	0.899	0.914	1.01	0.861	0.959	1.02	0.811	1.04	0.871	0.835	0.978	0.838	0.914	1.1	1.06	0.835	1	0.899	0.818	0.835	0.175
Calu-6	1.05	1.06	1.08	1.01	1.05	1.04	0.932	0.979	1	1	1.1	1.05	0.955	0.924	0.989	1.1	1.11	1.11	1.02	1.06	0.977	0.97	0.948	0.812
ChaGo-K-1	1.03	0.956	0.95	1.04	0.954	1.04	0.983	0.743	0.943	0.975	0.953	1.03	0.935	1.08	1.02	0.967	1.11	1.02	0.941	0.994	0.814	0.98	1	0.884
EBC-1	1.04	0.965	0.928	0.932	0.917	0.944	0.991	1.06	1.09	1.02	1.07	0.98	0.929	0.779	1.11	0.988	1.06	1.24	0.953	1.09	0.998	0.933	0.987	0.811
EKVX	0.964	0.966	1.04	0.926	0.924	0.957	0.944	0.963	1.03	0.974	0.997	0.903	0.888	1.03	0.888	0.877	1.02	1.13	0.981	1.17	0.905	0.731	0.975	0.885
EMC-BAC-2	0.94	1.03	1.07	1.09	0.655	1.41		1.08	1.02	0.927	1.12	0.999	1.03	1.18		0.967	1.13	1.13	0.994	1.31	0.916	0.738	1.05	0.971
EPLC-272H	1.01	0.947	0.676	1.04	0.87	0.945	1.07	0.863	0.911	0.936	0.939	0.959	0.907	1.18	1.04	0.686	1.03	1.05	0.703	0.862	0.839	0.943	1.03	0.831
H3255	0.926	0.96	0.95	1.05	0.812	0.981	1.03	1.06	0.938	0.929	0.917	0.994	0.994	1.19	0.999	0.938	1.07	1.12	0.978	0.992	0.89	0.938	0.989	0.952
HARA	0.859	0.893	0.958	0.981	0.865	1.04	0.86	0.951	1	0.903	1.12	0.94	0.767	0.843	1.14	1.06	1.04	0.993	0.636	1.04	0.796		0.977	0.997
HCC-15	0.963	1.14	1.08	0.968	1.03	0.995	0.994	1.09	1.01	0.954	1.13	1.06	0.94	1.06	1.08	1.03	1.08	1.2	0.957	0.967	0.856	0.936	1.01	0.874
HCC-44	0.981	1.04	1.01	0.979	0.933	1.07	0.935	0.978	0.986	0.956	1.04	0.919	0.905	1.04	0.982	0.976	1.07	1.05	1.06	1.05	0.921	1.04	0.922	0.974
HCC-78	1.07	0.94	0.856	0.886	0.774	1.03	0.942	0.937	0.782	0.949	1.09	0.75	0.871	1.03	0.879	0.906	1.06	1.08	0.917	1.15	0.925	0.724	1.03	0.474
HCC-366	1.02	1.01	1.09	1.02	1.02	1.03	0.992	0.877	1.01	0.999	1.08	1.09	1.03	1.06	1.03	1.05	1.13	1.02	1	1.08	0.991		1.06	0.854
HCC-827	1.04	1.11	1.02	1.06	0.992	1.05	1.04	1.05	1.01	1.04	1.07	1.05	0.773	1.06	1.04	1.07	1.08	1.06	1	0.986	0.952	0.791	1.02	1.02
HOP-62	1.08	1	0.997	0.954	0.981	1.03	1.03	1.16	1.01	1.03	1.11	1.13	0.886	1.14	1.06	1.09	1.21	1.06	1.05	1.06	0.989	0.915	1.14	0.744
IA-LM	0.997	0.894	0.96	0.862	0.825	0.937	0.938	1	0.972	0.987	1.05	0.887	0.805	1.12	1.02	0.879	0.916	1.25	0.883	0.995	0.813	1.02	1.01	0.958
LC-2-ad	1.01	1.07	1.01	1.01	1.01	1.03	0.868	0.993	1.03	0.924	1.1	1.06	0.967	1.02	1.02	1.05	1.1	1.15	0.88	1.03	0.84	0.819	1.05	0.935
LCLC-97TM1	0.978	0.973	0.969	0.953	1.04	0.979	0.86	1.06	1.04	0.971	0.962	0.929	0.794	1.09	0.725	0.81	1.11	1.03	0.864	0.845	0.738	1.03	0.963	0.468
LCLC-103H	1.06	1.02	1.01	0.903	0.997	1.08	0.98	0.923	1.01	0.96	1.01	1	0.953	1.05	1.01	1.01	1.02	0.952	0.687	1.04	0.875	0.805	1.02	0.993
LK-2	1.03	1.07	1.12	0.97	1.07	1.24	0.923	0.906	0.953	1.09	1.16	1.06	0.9	1.45	1.06	0.944	0.903	0.709	0.312	1.06	0.925	0.602	0.514	0.197
LOU-NH91	0.905	0.974	0.928	1.1	0.92	0.969	0.876	1.01	1.08	0.92	1.02	0.868	0.79	0.981	0.91	0.975	1.03	1.12	0.949	1.15	0.894	0.81	0.999	0.655

Source: the supplement of paper PMC10307832
